Laboratory results reported in patent US6342602B1, “Aryl or heteroaryl amides of tetrahydronaphthalene, chroman, thichroman and 1,2,3,4-tetrahydroquinolinecarboxlic acids, having an electron withdrawing substituent in the aromatic or heteroaromatic moiety, having retinoid-like biological activity” (Allergan Sales, Inc., priority 1995, dated 2002).

Columns and labels:
Assay in all cases: Cancer cell line assay, incorporation of 3H-thymidine
Conditions in all cases: 10^−11 to 10^−6 molar concentration range, 96 hours
RPMI 8226 = format: cell-based, human
Experimental: (§1) All trans-Retinoic acid (t-RA) (Sigma Chemicals Co., St. Louis, M.) was stored at −70° C. Prior to each experimet the compound was dissolved in 100% ethanol at 1 mM and diluted in culture medium immediately before use. All experiments were performed in subdued light. Controls were assayed using the same concentration of ethanol as present in the experimental plates and this concentration of diluent had no effect in either assay.
All cell lines, RPMI 8226, ME-180 and AML-193 were obtained from the American Type Culture Collection (ATCC, Rockville, Md.). RPMI 8226 is a human hematopoietic cell line obtained from the peripheral blood of a patient with multiple myeloma. The cells resemble the lymphoblastoid cells of other human lymphocyte cell lines and secrete […] light chains of immunoglobulin. RPMI-8226 cells are grown in RPMI medium (Gibco) supplemented with 10% fetal bovine serum, glutamine and antibiotics. The cells were maintained as suspension cultures grown at 37° C. in a humidified atmosphere of 5% CO2 in air. The cells were diluted to a concentration of 1×10^5/ml twice a week.
The method used for determination of the incorporation of radiolabeled thymidine was adapted from the procedure described by Shrivastav et al. RPMI-8226 cells were plated in a 96 well round bottom microtiter plate (Costar) at a density of 1,000 cells/well. To appropriate wells, retinoid test compounds were added at the final concentrations indicated for a final volume of 150 μl/well. The plates were incubated for 96 hours at 37° C. in a humidified atmosphere of 5% CO2 in air. Subsequently, 1 μCi of (5′-^3H]-thymidine (Amersham, U.K. 43 Ci/mmol specific activity) in 25 μl culture medium was added to each well and the cells were incubated for an additional 6 hours. The cultures were further processed as described below.
(§2) All cells lines were then processed as follows: the cellular DNA was precipitated with […] trichloroacetic acid onto glass fiber filter mats using a SKATRON multi-well cell harvester (Skatron Instruments, Sterling Va.). Radioactivity incorporated into DNA, as a direct measurement of cell growth, was measured by liquid scintillation counting. The numbers represent the mean disintegrations per minute of incorporated thymidine from triplicate wells±SEM.

ME-180 = format: cell-based, human
Experimental: as §1
ME-180 is a human epidermoid carcinoma cell line derived from the cervix. The tumor was a highly invasive squamous cell carcinoma with irregular cell clusters and no significant keratinization. ME-180 cells were grown and maintained in McCoy's 5a medium (Gibco) supplemented with 10% fetal bovine serum, glutamine and antibiotics. The cells were maintained as monolayer cultures grown at 37° C. in a humidified atmosphere of 5% CO2 in air. The cells were diluted to a concentration of 1×10^5/ml twice a week.
(§3) ME-180 wells, harvested by trypsinization were plated in a 96 well flat bottom microtiter plate (Costar) at a density of 2,000 cells/well. The cultures were treated as described above for RPMI 8226 with the following exceptions. After incubation with thymidine the supernatant was carefully removed, and the cells were washed with a 0.5 mM solution of thymidine in phosphate buffered saline. ME180 cells were briefly treated with 50 μl of 2.5% trypsin to dislodge the cells from the plate. AML-193 cells were plated in a 96 well round bottom microtiter plate (Costar) at a density of 1,000 cells/well. To appropriate wells, retinoid test compounds were added at the final concentrations indicated for a final volume of 150 μl/well. The plates were incubated for 96 hours at 37° C. in a humidified atmosphere of 5% CO2 in air. Subsequently, 1 μCi of [5′-^3H]-thymidine (Amersham, U.K., 43 Ci/mmol specific activity) in 25 μl culture medium was added to each well and the cells were incubated for an additional 6 hours.
as §2

AML-193 = format: cell-based
Experimental: as §1
AML-193 was established from the blast cells classified as M5 Acute Monocyte Leukemia. The growth factor, […] (GM-CSF) was required to establish this cell line and growth factors are necessary for its continuous proliferation in chemically defined medium. AML-193 cells were grown and maintained in Iscove's modified Dulbeccous medium supplemented with 10% fetal bovine serum, glutamine and antibiotics with 5 μg/ml insulin (Sigma Chemical Co.) and 2 ng/ml rh GM-CSF (R and D Systems). The cells were diluted to a concentration of 3×10^5/ml twice a week.
as §3, §2

Row | SMILES | proliferation of the tumor cell line (incorporation of radioactive labeled thymidine) (RPMI 8226) | proliferation of the tumor cell line (incorporation of radioactive labeled thymidine) (ME-180) | proliferation of the tumor cell line (incorporation of radioactive labeled thymidine) (AML-193)
1 | CC1(C)CCC(C)(C)c2c(Br)cc(C(=O)Nc3ccc(C(=O)O)c(F)c3)cc21 [Compound 6] | significant decrease in the proliferation | significant decrease in the proliferation | significant decrease in the proliferation
2 | CC1(C)CC(C)(C)c2cc(C(=O)Nc3ccc(C(=O)O)c(F)c3)cc(Br)c2O1 [Compound 12] | significant decrease in the proliferation | significant decrease in the proliferation | significant decrease in the proliferation
3 | CC1(C)CC(C)(C)c2cc(C(=O)Nc3ccc(C(=O)O)c(F)c3)cc(C(F)(F)F)c2O1 [Compound 14] | significant decrease in the proliferation | significant decrease in the proliferation | significant decrease in the proliferation
4 | CC1(C)CCC(C)(C)c2cc(C(=O)Nc3ccc(C(=O)O)c(F)c3)c(O)cc21 [Compound 8] | significant decrease in the proliferation | significant decrease in the proliferation | significant decrease in the proliferation
5 | CC1(C)CC(C)(C)c2cc(C(=O)Nc3ccc(C(=O)O)c(F)c3)cc(I)c2O1 [Compound 20] | significant decrease in the proliferation | significant decrease in the proliferation | significant decrease in the proliferation
